In general, MIC refers to the lowest concentration found to suppress growth.

Consider two molecules from patent publication US4198506A, “2-Carboxyalkyl-2,3-dihydro-6-mercapto-s-triazolo[4,3-b]-pyridazin-3-ones” (Bristol-Myers Company, priority 1979, dated 1980).

SMILES strings stand for the structures. ≈ marks a conversion by molar mass, not a printed value. Where “and” joins values, the source holds several entries; their conditions need not be identical. Equal entries are not always repeated. Where two headings read alike, the source gives them in different places.

Data set [1] deals with S. aureus penicillinase+). Briefly: In vitro activity (geometric mean MIC, serial dilution). It counts as cell-based. Conditions: Staphylococcus aureus, read-out: Geometric Mean MIC.
In data set [2] the test system is S. aureus (Methicillin-R). The data set is described as above. In kind it is cell-based. Conditions: Staphylococcus aureus; 15 strains; Mueller-Hinton agar, inoculum 10^4 dilution; MIC cutoff 200 mcg./ml.
Another data set concerns D. pneumoniae. The data set is described as above. In kind it is cell-based. Conditions: Streptococcus pneumoniae; 9 strains; Mueller-Hinton agar, inoculum 10^4 dilution; MIC cutoff 200 mcg./ml.
The subject of data set [3] is Enterobacter (Cephalosporinase +). The data set is described as above. It counts as cell-based. Conditions: 7 strains, Mueller-Hinton agar, inoculum 10^4 dilution, MIC cutoff 200 mcg./ml.
For the next data set, the system named is Proteus (indole +). Described as above. It counts as cell-based. Conditions: read-out: Geometric Mean MIC.
The subject of data set [4] is Proteus (indole +, cephalosporinase +). The data set is described as above. In kind it is cell-based. As to conditions: 5 strains; Mueller-Hinton agar, inoculum 10^4 dilution; MIC cutoff 200 mcg./ml.; read-out: Geometric Mean MIC.
The next data set has as its system Klebsiella sp. The description is as above. In kind it is cell-based. As to conditions: 12 strains, Mueller-Hinton agar, inoculum 10^4 dilution, MIC cutoff 200 mcg./ml., read-out: Geometric Mean MIC.
A further data set deals with Pr. vulgaris. Kind of data set: In vitro antibacterial activity (Steers' agar dilution MIC). It counts as cell-based. Conditions: Proteus vulgaris.
A further data set deals with Pr. rettgeri. The description is as above. Conditions: Providencia rettgeri. It counts as cell-based.
A further data set concerns E. coli Juhl. Kind of data set: In vivo activity (Mice, sc). As to conditions: several determinations listed. An excerpt:
|In vivo Activity of BB-[…] and Related Compounds (Mice, sc) | (PD50 (mgm./kg.)

Another data set concerns rabbits. Kind of data set: Preliminary nephrotoxicity study. In kind it is in vivo. Conditions: two rabbits, 100 mg./kg. intravenously. How it is done:
A preliminary nephrotoxicity study was carried out by administration of the test compound to a group of two rabbits at 100 mg./kg. intravenously.

The mark [5] stands for this setting: table 2 (BB-S493), Pr. vulgaris A9436, read-out: MIC.
Setting [6] is: table 2 (BB-S493), Pr. vulgaris A9699, read-out: MIC.
Where [7] appears, read: table 4 (BB-S 525), Pr. vulgaris, 1st line, read-out: MIC.
Setting [8] is: table 2 (BB-S493), Pr. rettgeri A15167.
Setting [9] is: table 4 (BB-S 525), Pr. rettgeri.

On to `CNCc1ccccc1CC(=O)N[C@@H]1C(=O)N2C(C(=O)O)=C(CSc3ccc4nn(CC(=O)O)c(=O)n4n3)CS[C@H]12` [BB-S479, 7-[o-(Methylaminomethyl)phenylacetamido]-3-(2-carboxymethyl-2,3-dihydro-s-triazolo[4,3-b]pyridazin-3-on-6-ylthiomethyl)-3-cephem-4-carboxylic Acid], for which the MIC in data set [1] was 0.9 µg/mL (≈ 1.5 µM); in data set [2], 35 µg/mL (≈ 58.4 µM); with D. pneumoniae, 0.04 µg/mL (≈ 0.0667 µM); in [3] it was 2.1 µg/mL (≈ 3.5 µM); with Proteus (indole +) (14 strains, Mueller-Hinton agar, inoculum 10^4 dilution, MIC cutoff 200 mcg./ml.), 0.2 µg/mL (≈ 0.334 µM); in [4], 4.8 µg/mL (≈ 8 µM). The MIC in the data set on Klebsiella sp. amounted to 0.6 µg/mL (≈ 1 µM); in the data set on Pr. vulgaris (setting [5]), 0.1 µg/mL (≈ 0.167 µM); in the data set on Pr. vulgaris (setting [6]), 0.8 µg/mL (≈ 1.33 µM); with Pr. vulgaris (setting [7]), 0.2 µg/mL (≈ 0.334 µM); with Pr. vulgaris (table 4 (BB-S 525), Pr. vulgaris, 2nd line, read-out: MIC), 0.8 µg/mL (≈ 1.33 µM); in the data set on Pr. rettgeri (setting [8]), 0.1 µg/mL (≈ 0.167 µM). Besides, in the data set on Pr. rettgeri (setting [9]), the MIC worked out at 0.8 µg/mL (≈ 1.33 µM). Besides, the ED50 in the data set on E. coli Juhl (Escherichia coli, read-out: PD50) was 0.19 mg/kg. Further, the PD50 in the data set on E. coli Juhl was 0.15 mgm./kg. and 0.12 mgm./kg. The nephrotoxic potential result in the data set with rabbits is listed as “little nephrotoxic potential”.

Take `Cn1nnnc1SCC1=C(C(=O)O)N2C(=O)[C@@H](NC(=O)[C@H](O)c3ccccc3)[C@H]2SC1` [Cefamandole, reference compound]: the MIC in data set [1] amounted to 0.4 µg/mL (≈ 0.865 µM); in data set [2] it was 2.4 µg/mL (≈ 5.19 µM); against D. pneumoniae, 0.2 µg/mL (≈ 0.432 µM); in data set [3], 4.7 µg/mL (≈ 10.2 µM); in the data set with Proteus (indole +), 0.5 µg/mL (≈ 1.08 µM); in [4], 3.6 µg/mL (≈ 7.78 µM). The MIC in the data set on Klebsiella sp. is 2.4 µg/mL (≈ 5.19 µM); against Pr. vulgaris, 50 µg/mL (≈ 108 µM); in the data set with Pr. vulgaris (setting [5]), 0.2 µg/mL (≈ 0.432 µM); in the data set with Pr. vulgaris (setting [6]), 25 µg/mL (≈ 54.1 µM); in the data set on Pr. vulgaris (setting [7]) it was 0.2 µg/mL (≈ 0.432 µM); against Pr. rettgeri (setting [8]), 0.1 µg/mL (≈ 0.216 µM). In the data set with Pr. rettgeri (setting [9]), this molecule returned an MIC of 0.1 µg/mL (≈ 0.216 µM).
